Results reported in article PMC9569988 (International Journal of Molecular Sciences, 2022).
Where “and” joins values, the source holds several entries; their conditions need not be identical. Identical values can stand only once. Entries after “also recorded” stand apart in the source; their conditions may differ.

tested on: SADS-CoV; assay: not given; type: cell-based, Swine acute diarrhea syndrome coronavirus; settings: not given

Structure (SMILES)	effect on virus internalization
COc1c(C)c2c(c(O)c1C/C=C(\C)CCC(=O)O)C(=O)OC2 [Mycophenolic acid]	no statistically significant difference
COc1c(C)c2c(c(O)c1C/C=C(\C)CCC(=O)OCCN1CCOCC1)C(=O)OC2 [Mycophenolate mofetil]	no statistically significant difference
Nc1ccn([C@@H]2O[C@H](CO)[C@@H](O)C2(F)F)c(=O)n1 [Gemcitabine]	no statistically significant difference
CN(C)c1ccc2nc3ccc(=[N+](C)C)cc-3sc2c1 [Methylene blue]	no distinct effect
COc1ccc2cc1Oc1ccc(cc1)C[C@H]1c3c(cc4c(c3Oc3cc5c(cc3OC)CCN(C)[C@@H]5C2)OCO4)CCN1C [Cepharanthine]	less function

tested on: Huh7 cells; assay: not given; settings: not given

Structure (SMILES)	CC50
COc1c(C)c2c(c(O)c1C/C=C(\C)CCC(=O)O)C(=O)OC2 [Mycophenolic acid]	low cytotoxicity
COc1c(C)c2c(c(O)c1C/C=C(\C)CCC(=O)OCCN1CCOCC1)C(=O)OC2 [Mycophenolate mofetil]	low cytotoxicity
Nc1ccn([C@@H]2O[C@H](CO)[C@@H](O)C2(F)F)c(=O)n1 [Gemcitabine]	low cytotoxicity
CN(C)c1ccc2nc3ccc(=[N+](C)C)cc-3sc2c1 [Methylene blue]	low cytotoxicity

tested on: SADS-CoV; assay: not given; type: cell-based, Swine acute diarrhea syndrome coronavirus; settings: not given; remark: another data set of the same source

Structure (SMILES)	effect on virus binding compared with positive control	decrease of SADS-CoV RNA in binding assay
COc1c(C)c2c(c(O)c1C/C=C(\C)CCC(=O)O)C(=O)OC2 [Mycophenolic acid]	no statistically significant difference	
COc1c(C)c2c(c(O)c1C/C=C(\C)CCC(=O)OCCN1CCOCC1)C(=O)OC2 [Mycophenolate mofetil]	no statistically significant difference	
Nc1ccn([C@@H]2O[C@H](CO)[C@@H](O)C2(F)F)c(=O)n1 [Gemcitabine]	no statistically significant difference	
CN(C)c1ccc2nc3ccc(=[N+](C)C)cc-3sc2c1 [Methylene blue]		78.5% and 88.5%

tested on: SADS-CoV; assay: microbe, parasite or virus in culture; type: cell-based, Swine acute diarrhea syndrome coronavirus; settings: not given

Structure (SMILES)	CPE inhibition in SADS-CoV infection
COc1c(C)c2c(c(O)c1C/C=C(\C)CCC(=O)O)C(=O)OC2 [Mycophenolic acid]	significantly exhibited CPE inhibitions
COc1c(C)c2c(c(O)c1C/C=C(\C)CCC(=O)OCCN1CCOCC1)C(=O)OC2 [Mycophenolate mofetil]	significantly exhibited CPE inhibitions
Nc1ccn([C@@H]2O[C@H](CO)[C@@H](O)C2(F)F)c(=O)n1 [Gemcitabine]	significantly exhibited CPE inhibitions
CN(C)c1ccc2nc3ccc(=[N+](C)C)cc-3sc2c1 [Methylene blue]	significantly exhibited CPE inhibitions
COc1ccc2cc1Oc1ccc(cc1)C[C@H]1c3c(cc4c(c3Oc3cc5c(cc3OC)CCN(C)[C@@H]5C2)OCO4)CCN1C [Cepharanthine]	significantly exhibited CPE inhibitions

same assay, conditions: Swine acute diarrhea syndrome coronavirus, Huh-7, read-out: inhibition rate of SADS-CoV viral replication (qPCR)

Structure (SMILES)	inhibition at 10 µM
COc1c(C)c2c(c(O)c1C/C=C(\C)CCC(=O)O)C(=O)OC2 [Mycophenolic acid]	> 60%
COc1c(C)c2c(c(O)c1C/C=C(\C)CCC(=O)OCCN1CCOCC1)C(=O)OC2 [Mycophenolate mofetil]	> 60%
Nc1ccn([C@@H]2O[C@H](CO)[C@@H](O)C2(F)F)c(=O)n1 [Gemcitabine]	> 60%
CN(C)c1ccc2nc3ccc(=[N+](C)C)cc-3sc2c1 [Methylene blue]	> 60%
COc1ccc2cc1Oc1ccc(cc1)C[C@H]1c3c(cc4c(c3Oc3cc5c(cc3OC)CCN(C)[C@@H]5C2)OCO4)CCN1C [Cepharanthine]	> 60%

tested on: SADS-CoV nucleocapsid protein; assay: not given; type: cell-based, Swine acute diarrhea syndrome coronavirus; settings: not given

Structure (SMILES)	expression of viral proteins in cells (immunoblot)
COc1c(C)c2c(c(O)c1C/C=C(\C)CCC(=O)O)C(=O)OC2 [Mycophenolic acid]	inhibition effect
COc1c(C)c2c(c(O)c1C/C=C(\C)CCC(=O)OCCN1CCOCC1)C(=O)OC2 [Mycophenolate mofetil]	inhibition effect
Nc1ccn([C@@H]2O[C@H](CO)[C@@H](O)C2(F)F)c(=O)n1 [Gemcitabine]	inhibition effect
CN(C)c1ccc2nc3ccc(=[N+](C)C)cc-3sc2c1 [Methylene blue]	inhibition of viral protein expression

tested on: SADS-CoV; assay: not given; type: cell-based, Swine acute diarrhea syndrome coronavirus; settings: not given; remark: another data set of the same source

Structure (SMILES)	SADS-CoV titer (TCID50) at 24 hpi
CN(C)c1ccc2nc3ccc(=[N+](C)C)cc-3sc2c1 [Methylene blue]	inhibit SADS-CoV infection; also recorded: inhibition effect got better
COc1ccc2cc1Oc1ccc(cc1)C[C@H]1c3c(cc4c(c3Oc3cc5c(cc3OC)CCN(C)[C@@H]5C2)OCO4)CCN1C [Cepharanthine]	viral titer was decreased; also recorded: also effective; also recorded: showed a reduction in SADS-CoV viral progeny

tested on: SADS-CoV; assay: not given; type: cell-based, Swine acute diarrhea syndrome coronavirus; settings: not given; remark: another data set of the same source

Structure (SMILES)	decrease of viral RNA expression in the cells
COc1c(C)c2c(c(O)c1C/C=C(\C)CCC(=O)O)C(=O)OC2 [Mycophenolic acid]	96.7% and 93.9%
COc1c(C)c2c(c(O)c1C/C=C(\C)CCC(=O)OCCN1CCOCC1)C(=O)OC2 [Mycophenolate mofetil]	91.5% and 65.8%
Nc1ccn([C@@H]2O[C@H](CO)[C@@H](O)C2(F)F)c(=O)n1 [Gemcitabine]	less remarkable differences
COc1ccc2cc1Oc1ccc(cc1)C[C@H]1c3c(cc4c(c3Oc3cc5c(cc3OC)CCN(C)[C@@H]5C2)OCO4)CCN1C [Cepharanthine]	72.9% and 57.5%

tested on: not listed separately; assay: in vitro; settings: human

Structure (SMILES)	CC50
COc1c(C)c2c(c(O)c1C/C=C(\C)CCC(=O)O)C(=O)OC2 [Mycophenolic acid]	> 100000 nM
COc1c(C)c2c(c(O)c1C/C=C(\C)CCC(=O)OCCN1CCOCC1)C(=O)OC2 [Mycophenolate mofetil]	> 100000 nM
Nc1ccn([C@@H]2O[C@H](CO)[C@@H](O)C2(F)F)c(=O)n1 [Gemcitabine]	88500 nM
CN(C)c1ccc2nc3ccc(=[N+](C)C)cc-3sc2c1 [Methylene blue]	> 25000 nM
COc1ccc2cc1Oc1ccc(cc1)C[C@H]1c3c(cc4c(c3Oc3cc5c(cc3OC)CCN(C)[C@@H]5C2)OCO4)CCN1C [Cepharanthine]	16200 nM

tested on: SADS-CoV; assay: microbe, parasite or virus in culture; type: cell-based; settings: Swine acute diarrhea syndrome coronavirus, Huh-7

Structure (SMILES)	EC50
COc1c(C)c2c(c(O)c1C/C=C(\C)CCC(=O)O)C(=O)OC2 [Mycophenolic acid]	560 nM
COc1c(C)c2c(c(O)c1C/C=C(\C)CCC(=O)OCCN1CCOCC1)C(=O)OC2 [Mycophenolate mofetil]	1700 nM
Nc1ccn([C@@H]2O[C@H](CO)[C@@H](O)C2(F)F)c(=O)n1 [Gemcitabine]	117 nM
CN(C)c1ccc2nc3ccc(=[N+](C)C)cc-3sc2c1 [Methylene blue]	218 nM
COc1ccc2cc1Oc1ccc(cc1)C[C@H]1c3c(cc4c(c3Oc3cc5c(cc3OC)CCN(C)[C@@H]5C2)OCO4)CCN1C [Cepharanthine]	789 nM

tested on: SADS-CoV; assay: not given; type: cell-based, Swine acute diarrhea syndrome coronavirus; settings: not given; remark: another data set of the same source

Structure (SMILES)	decrease of viral RNA in the supernatant	reduction of viral RNA compared with the positive control	viral RNA decrease	virus RNA level in the supernatant when added after virus entry
COc1c(C)c2c(c(O)c1C/C=C(\C)CCC(=O)O)C(=O)OC2 [Mycophenolic acid]	0.9 log			
COc1c(C)c2c(c(O)c1C/C=C(\C)CCC(=O)OCCN1CCOCC1)C(=O)OC2 [Mycophenolate mofetil]	0.5 log			
Nc1ccn([C@@H]2O[C@H](CO)[C@@H](O)C2(F)F)c(=O)n1 [Gemcitabine]	1.8 log			
CN(C)c1ccc2nc3ccc(=[N+](C)C)cc-3sc2c1 [Methylene blue]		2- to 3 log	3 log	
COc1ccc2cc1Oc1ccc(cc1)C[C@H]1c3c(cc4c(c3Oc3cc5c(cc3OC)CCN(C)[C@@H]5C2)OCO4)CCN1C [Cepharanthine]				could not inhibit SADS-CoV replication

tested on: SADS-CoV; assay: not given; type: cell-based, Swine acute diarrhea syndrome coronavirus; settings: not given; remark: another data set of the same source

Structure (SMILES)	viral titers in the supernatant (infectious progeny)
COc1c(C)c2c(c(O)c1C/C=C(\C)CCC(=O)O)C(=O)OC2 [Mycophenolic acid]	exhibited inhibitory effects only when they were added after viral entry
COc1c(C)c2c(c(O)c1C/C=C(\C)CCC(=O)OCCN1CCOCC1)C(=O)OC2 [Mycophenolate mofetil]	exhibited inhibitory effects only when they were added after viral entry
Nc1ccn([C@@H]2O[C@H](CO)[C@@H](O)C2(F)F)c(=O)n1 [Gemcitabine]	exhibited inhibitory effects only when they were added after viral entry
CN(C)c1ccc2nc3ccc(=[N+](C)C)cc-3sc2c1 [Methylene blue]	strong inhibitory activity against viral replication during both periods
COc1ccc2cc1Oc1ccc(cc1)C[C@H]1c3c(cc4c(c3Oc3cc5c(cc3OC)CCN(C)[C@@H]5C2)OCO4)CCN1C [Cepharanthine]	at the ”Entry” stage could reduce infectious progeny
